Measured values from PMC8121067 (Journal of Cell Science, 2021).
Several values for one entry are separate records, joined by “and”; a condition that tells them apart may be missing. Equal entries are not always repeated. Entries after “also recorded” stand apart in the source; their conditions may differ. Marks after values point to notes of the source that are not given here.

Key:
[1] = test system: REF52 fibroblast; assay: traction force microscopy in living cells; format: cell-based, rat; conditions: 30 μM, within 10 min
Description: Traction force microscopy with embedded beads was performed as described previously ([Rafiq et al., 2019]). Briefly, soft polydimethylsiloxanes CY 52-276A and CY 52-276B (Dow Corning, 0008602722) were mixed at the ratio 1:1 and Sylgard 184 crosslinker was used to tune the stiffness of the gel for proper force measurement of cells (∼95 kPa). The mixture was spin-coated onto a clean coverslip to achieve the thickness of ∼7 μm and cured for 1 h at 80°C. The surface of the gel was silanized with (3-aminopropyl)triethoxysilane for 2 h, followed by incubation of 0.04 μm FluoSpheres carboxylate-modified microspheres, dark red fluorescent (660/680) beads (Thermo Fisher Scientific, 1871942) at 1×10^6 beads/ml in a solution of 0.1 M NaHCO3 for 30 min. Before seeding the cells, the coverslips with beads were further incubated for 30 min with 10 μg/ml fibronectin, also dissolved in 0.1 M NaHCO3. Traction forces were calculated from bead displacement fields visualized by using live cell imaging as described by [Tseng et al. (2012)], and using the online ImageJ plugin (https://sites.google.com/site/qingzongtseng/tfm for plugin software details). The computation algorithm as published by [Sabass et al. (2008)] was used. The distribution of traction force magnitude was presented as a heat map (Fig. 1A), and mean magnitude values were calculated for each cell.

[2] = test system: permeabilized REF52 cells; assay: ATP-dependent ventral stress fiber retraction in Triton X-100-permeabilized cells; format: cell-based, rat
Description: Detergent treatment leads to depletion of all soluble factors from the cells and, in particular, of ATP. Supplementing the medium with ATP induces the myosin 2-dependent contraction of stress fibers. […] We locally photoconverted spots along the length of ventral stress fibers, and tracked both retraction of the unconverted stress fiber ends and longitudinal movements of the photoconverted actin spots after adding ATP into the solution (Fig. 1C, left panel).
For stress fiber imaging, REF52 cells were transfected with mEos3.2-Actin expression plasmid and seeded onto a 35 mm glass bottom dish (Iwaki, 3930-035) 24 h prior to the assay.
The protocol of the cell permeabilization and cytoskeleton contractility assay has been described previously ([Tee and Bershadsky, 2016]; [Tee et al., 2015]). […] All drug remained in the buffer during the entire period of observation.

[3] = test system: HFF cells; assay: centripetal movement of myosin 2 filaments at transverse arcs in living cells (PIV); format: cell-based, human; conditions: treated 45 min, 12.5, 25 or 50 μM
Description: (§1) We also tested inhibition of contraction of another type of contractile actomyosin structure, i.e. of the transverse arcs formed by periodically arranged myosin and actin filaments in fibroblasts ([Hu et al., 2017]). We measured the velocity of movement of transverse arcs in human foreskin fibroblast (HFF) cells plated on a circular fibronectin island ([Tee et al., 2015]). In control cells, filaments of non-muscle myosin 2 were visualized by expression of GFP-tagged myosin regulatory light chain (GFP-MRLC) localized to the transverse arcs and moved towards the cell center with an average velocity of 0.152 μm/min, as determined by particle image velocimetry (PIV) (Fig. 2A) ([Hu et al., 2017)]. […] Permeabilization of the same cells by using Triton X-100 removed G-actin and ATP. […]
(§2) Particle Image Velocimetry (PIV) analysis was used to measure average instantaneous speed of filaments of non-muscle myosin 2 visualized by expression of GFP-MRLC. […] To quantify the retraction speed of stress fiber ends, we manually selected all ends labeled by unconverted mEOS3.2-actin and arranged them into kymographs for every cell. The retraction speed for each end during imaging was calculated manually using the kymograph. The average retraction speed of stress fibers was calculated for each cell and plotted.

[4] = test system: permeabilized HFF cells; assay: ATP-induced centripetal movement of myosin 2 filaments in permeabilized cells (PIV); format: cell-based, human; conditions: 50 μM
Description: as §1, §2

[5] = molecular target: T1, human non-muscle myosin 2A (Homo sapiens, UniProt P35579); assay: actin-activated ATPase assay (NADH-linked); format: biochemical; conditions: phosphorylated by MLCK; 10 µM actin, 25°C; approximate; read-out: IC50, actin-activated MgATPase activity
T1 construct: A heavy meromyosin (HMM)-like fragment of human non-muscle myosin 2A; made in house; host or cells: Sf9 insect cells (baculovirus co-infection)
Description: (§3) Two methods are primarily used to assess actomyosin function in vitro. […] In the absence of actin, myosins have very low basal ATPase rates that are activated 10–1000-fold by the addition of actin ([De La Cruz and Ostap, 2009]).
(§4) A heavy meromyosin (HMM)-like fragment of human non-muscle myosin 2A was prepared by expression in Sf9 insect cells as described ([Kengyel et al., 2010]). Cells were co-infected with a virus driving the expression of the truncated myosin heavy chain as well as one driving the expression of regulatory and essential light chains. The myosin was phosphorylated through smooth muscle myosin light chain kinase (MLCK) prior to use ([Nagy et al., 2013]). Full-length Drosophila myosin 5 ([Lu et al., 2020]), Drosophila myosin 7a ([Yang et al., 2009]) and a forced dimeric HMM-like fragment of bovine myosin 10 ([Takagi et al., 2014]) were also produced in Sf9 cells. Drosophila myosin 5 was co-expressed with Drosophila ELC and calmodulin, whereas the HMM-like fragment of myosin 10 was co-expressed with calmodulin. Skeletal muscle HMM was produced by chymotrypic digestion of full-length rabbit fast skeletal muscle myosin ([Margossian and Lowey, 1982]). […]
(§5) Actin-activated ATPase assays were carried out using an NADH-linked assay in a Cary 50 spectrophotometer as previously described ([Heissler et al., 2015]). […] Absorbance was monitored at 340 nm. […]

[6] = molecular target: rabbit skeletal muscle myosin 2; assay: actin-activated ATPase assay (NADH-linked); format: biochemical; conditions: tissue purified, mixed isoforms; approximate
Description: as §3, §4, §5

[7] = molecular target: MLCK (Homo sapiens, UniProt Q15746); assay: myosin light chain kinase phosphorylation of non-muscle myosin 2A (HPLC-mass spectrometry); format: biochemical; conditions: 100 μM
[8] = test system: rabbit skeletal muscle myosin 2 HMM; assay: gliding actin in vitro motility assay; format: biochemical
Description: Here, skeletal muscle myosin 2 HMM is bound to a nitrocellulose-coated coverslip and its ability to translocate Rhodamine–phalloidin-labeled actin filaments observed (Table 1). […] The lack of reversibility could be due to covalent modification of myosin by SMIFH2. […] A higher drug concentration was required to achieve ∼50% of the gliding velocity than was required for similar inhibition of the actin-activated ATPase. This was also observed when blebbistatin was used to inhibit actin gliding ([Limouze et al., 2004]; [Sakamoto et al., 2005]).
The gliding actin in vitro motility assay was conducted at 30°C in 50 mM KCl, 4 mM MgCl2, 0.1 mM EGTA, 30 mM MOPS pH 7.2, 0.5% methylcellulose, 1 mM ATP, using an oxygen-savaging system consisting of 2.5 μg/ml glucose oxidase, 45 μg/ml catalase, 2.5 mg/ml glucose and […] DTT ([Sellers et al., 1993]). The rate of movement of actin filaments was determined as described previously ([Homsher et al., 1992]).

[9] = molecular target: Drosophila myosin 5 (Drosophila melanogaster, UniProt A1Z6Z9); assay: actin-activated ATPase assay (NADH-linked); format: biochemical; conditions: approximate
Description: (§6) There are 40 myosin heavy chain genes from twelve classes in the human genome ([Berg et al., 2001]). Many, but not all of these myosins are present in other metazoan species including Drosophila ([Yamashita et al., 2000]). Although all of these myosins contain a conserved motor domain, the tail portions are very diverse, allowing the myosins to perform a plethora of cellular functions. […] The assays regarding bovine myosin 10 are particularly interesting since this myosin plays a role in filopodia initiation and formation in mammalian cells ([Kerber and Cheney, 2011]), a process that also involves formin action.
(§7) A heavy meromyosin (HMM)-like fragment of human non-muscle myosin 2A was prepared by expression in Sf9 insect cells as described ([Kengyel et al., 2010]). Cells were co-infected with a virus driving the expression of the truncated myosin heavy chain as well as one driving the expression of regulatory and essential light chains. The myosin was phosphorylated through smooth muscle myosin light chain kinase (MLCK) prior to use ([Nagy et al., 2013]). Full-length Drosophila myosin 5 ([Lu et al., 2020]), Drosophila myosin 7a ([Yang et al., 2009]) and a forced dimeric HMM-like fragment of bovine myosin 10 ([Takagi et al., 2014]) were also produced in Sf9 cells. Drosophila myosin 5 was co-expressed with Drosophila ELC and calmodulin, whereas the HMM-like fragment of myosin 10 was co-expressed with calmodulin. Skeletal muscle HMM was produced by chymotrypic digestion of full-length rabbit fast skeletal muscle myosin ([Margossian and Lowey, 1982]). Rabbit skeletal muscle actin was prepared as previously described ([Lehrer and Kerwar, 1972]).
(§8) Actin-activated ATPase assays were carried out using an NADH-linked assay in a Cary 50 spectrophotometer as previously described ([Heissler et al., 2015]). […] The final amount of DMSO added to the samples was 2%. The assay conditions were 10 µM actin, 50 mM KCl, 10 mM MOPS, 2 mM MgCl2, 0.1 mM EGTA, 1 mM ATP, 10 mM MOPS pH 7.0 at 25°C. […] Absorbance was monitored at 340 nm.

[10] = molecular target: T2, Drosophila myosin 7a (Drosophila melanogaster, UniProt Q9V3Z6); assay: actin-activated ATPase assay (NADH-linked); format: biochemical; conditions: approximate
T2 construct: made in house; host or cells: Sf9 cells
Description: as §6, §7, §8

[11] = molecular target: T3, bovine myosin 10 (Bos taurus, UniProt P79114); assay: actin-activated ATPase assay (NADH-linked); format: biochemical; conditions: approximate
T3 construct: a forced dimeric HMM-like fragment of bovine myosin 10; dimerisation element (forced dimer); made in house; host or cells: Sf9 cells
Description: as §6, §7, §8

[12] = test system: mDia1; set-up: method as in Rizvi et al., 2009; conditions: actin assembly in the presence of profilin in vitro; ref Rizvi et al., 2009; read-out: Half-maximal inhibition of mDia1; cited from earlier work
[13] = test system: Formins: CYK-1, Cdc12 and Fus1, Bn1, mDia2; set-up: method as in Rizvi et al., 2009; conditions: CYK-1, Cdc12, Fus1, Bn1, mDia2; ref Rizvi et al., 2009; read-out: IC50 values for formins from a variety of species; cited from earlier work
[14] = test system: pure actin; set-up: method as in Rizvi et al., 2009; conditions: ref Rizvi et al., 2009; cited from earlier work

T3 sequence (P79114 other isoform, or with tags, fused parts or gaps): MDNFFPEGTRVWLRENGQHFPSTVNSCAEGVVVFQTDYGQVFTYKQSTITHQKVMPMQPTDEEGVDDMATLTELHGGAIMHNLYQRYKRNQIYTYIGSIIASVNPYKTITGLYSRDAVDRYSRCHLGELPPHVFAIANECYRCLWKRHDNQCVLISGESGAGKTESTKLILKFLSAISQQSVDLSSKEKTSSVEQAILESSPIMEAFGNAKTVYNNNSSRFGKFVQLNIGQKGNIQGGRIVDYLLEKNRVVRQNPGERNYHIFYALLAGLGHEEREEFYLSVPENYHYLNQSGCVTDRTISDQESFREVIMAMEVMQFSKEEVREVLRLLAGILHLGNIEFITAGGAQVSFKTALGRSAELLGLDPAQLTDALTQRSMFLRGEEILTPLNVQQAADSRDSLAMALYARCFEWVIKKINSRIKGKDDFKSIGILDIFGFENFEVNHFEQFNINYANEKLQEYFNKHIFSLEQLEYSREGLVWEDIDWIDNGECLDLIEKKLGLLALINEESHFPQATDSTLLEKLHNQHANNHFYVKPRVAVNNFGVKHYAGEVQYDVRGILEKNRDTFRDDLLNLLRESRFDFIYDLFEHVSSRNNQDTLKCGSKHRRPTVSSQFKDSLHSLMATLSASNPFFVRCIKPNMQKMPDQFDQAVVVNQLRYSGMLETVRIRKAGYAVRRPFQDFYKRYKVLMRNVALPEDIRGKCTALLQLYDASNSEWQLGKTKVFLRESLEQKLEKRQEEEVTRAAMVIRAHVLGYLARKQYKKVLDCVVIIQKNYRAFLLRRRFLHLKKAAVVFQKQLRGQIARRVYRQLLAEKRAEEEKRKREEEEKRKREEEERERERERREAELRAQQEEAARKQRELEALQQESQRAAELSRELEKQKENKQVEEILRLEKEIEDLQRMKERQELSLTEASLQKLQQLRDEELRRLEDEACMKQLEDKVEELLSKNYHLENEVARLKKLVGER
MLCK, sequence (Q15746 923-1914): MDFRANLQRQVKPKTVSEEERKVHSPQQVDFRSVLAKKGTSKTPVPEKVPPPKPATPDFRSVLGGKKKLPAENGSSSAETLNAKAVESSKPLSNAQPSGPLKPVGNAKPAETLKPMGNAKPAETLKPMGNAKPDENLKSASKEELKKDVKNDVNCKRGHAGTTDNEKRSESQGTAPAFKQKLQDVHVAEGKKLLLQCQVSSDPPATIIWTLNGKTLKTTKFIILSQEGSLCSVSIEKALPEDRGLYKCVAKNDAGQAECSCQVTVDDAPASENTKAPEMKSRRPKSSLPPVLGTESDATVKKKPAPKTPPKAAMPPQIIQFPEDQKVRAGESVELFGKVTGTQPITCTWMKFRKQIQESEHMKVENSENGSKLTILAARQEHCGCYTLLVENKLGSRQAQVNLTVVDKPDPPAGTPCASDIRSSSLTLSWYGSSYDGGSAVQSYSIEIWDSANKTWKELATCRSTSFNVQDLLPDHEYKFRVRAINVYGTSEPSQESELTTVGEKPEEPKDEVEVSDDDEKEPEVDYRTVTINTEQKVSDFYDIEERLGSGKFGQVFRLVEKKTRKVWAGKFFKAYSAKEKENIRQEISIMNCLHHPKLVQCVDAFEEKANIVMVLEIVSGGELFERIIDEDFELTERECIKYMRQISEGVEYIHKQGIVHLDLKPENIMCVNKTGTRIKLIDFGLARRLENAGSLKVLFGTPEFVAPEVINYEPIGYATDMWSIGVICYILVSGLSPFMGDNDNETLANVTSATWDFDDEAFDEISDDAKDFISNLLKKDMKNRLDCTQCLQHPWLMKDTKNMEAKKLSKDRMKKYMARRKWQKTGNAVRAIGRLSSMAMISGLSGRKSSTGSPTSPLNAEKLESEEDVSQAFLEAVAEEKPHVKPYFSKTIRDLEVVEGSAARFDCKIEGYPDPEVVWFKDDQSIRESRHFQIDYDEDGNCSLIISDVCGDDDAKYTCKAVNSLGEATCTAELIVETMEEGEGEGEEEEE
T1 sequence (P35579 1-1337 limits assumed): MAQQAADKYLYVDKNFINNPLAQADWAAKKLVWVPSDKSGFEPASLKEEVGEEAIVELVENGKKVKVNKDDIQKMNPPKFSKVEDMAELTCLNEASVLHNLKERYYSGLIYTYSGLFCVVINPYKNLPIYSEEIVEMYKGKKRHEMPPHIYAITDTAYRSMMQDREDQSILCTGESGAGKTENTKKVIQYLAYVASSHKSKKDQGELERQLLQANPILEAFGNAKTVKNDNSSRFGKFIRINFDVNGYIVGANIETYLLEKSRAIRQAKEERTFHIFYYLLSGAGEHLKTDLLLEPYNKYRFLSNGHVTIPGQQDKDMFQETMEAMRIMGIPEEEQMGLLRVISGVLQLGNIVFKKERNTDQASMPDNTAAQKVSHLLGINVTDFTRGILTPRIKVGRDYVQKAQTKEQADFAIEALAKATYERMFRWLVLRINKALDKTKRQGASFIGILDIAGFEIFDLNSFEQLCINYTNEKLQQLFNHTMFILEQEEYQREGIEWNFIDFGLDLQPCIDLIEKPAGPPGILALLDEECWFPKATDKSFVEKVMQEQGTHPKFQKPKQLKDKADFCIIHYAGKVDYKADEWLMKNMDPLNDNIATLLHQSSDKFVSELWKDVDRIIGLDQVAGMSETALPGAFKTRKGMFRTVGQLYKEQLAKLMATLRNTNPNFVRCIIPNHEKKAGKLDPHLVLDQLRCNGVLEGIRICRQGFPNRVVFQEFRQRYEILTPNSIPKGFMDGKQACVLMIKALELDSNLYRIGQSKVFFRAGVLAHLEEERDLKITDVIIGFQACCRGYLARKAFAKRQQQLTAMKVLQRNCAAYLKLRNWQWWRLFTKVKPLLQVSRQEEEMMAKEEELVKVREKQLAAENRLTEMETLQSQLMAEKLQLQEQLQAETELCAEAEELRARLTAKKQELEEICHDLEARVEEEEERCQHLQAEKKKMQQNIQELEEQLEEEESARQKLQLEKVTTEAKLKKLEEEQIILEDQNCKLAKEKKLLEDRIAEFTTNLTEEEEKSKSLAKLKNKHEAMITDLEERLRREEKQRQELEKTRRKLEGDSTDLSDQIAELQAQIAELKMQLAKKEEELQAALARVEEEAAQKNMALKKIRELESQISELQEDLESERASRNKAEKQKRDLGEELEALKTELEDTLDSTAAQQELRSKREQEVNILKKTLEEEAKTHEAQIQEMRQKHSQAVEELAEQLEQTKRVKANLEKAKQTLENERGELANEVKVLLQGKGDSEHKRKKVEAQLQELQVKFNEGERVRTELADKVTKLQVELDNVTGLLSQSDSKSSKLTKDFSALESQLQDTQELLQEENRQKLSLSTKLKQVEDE
T1 sequence (O14950 2-172 partner limits assumed): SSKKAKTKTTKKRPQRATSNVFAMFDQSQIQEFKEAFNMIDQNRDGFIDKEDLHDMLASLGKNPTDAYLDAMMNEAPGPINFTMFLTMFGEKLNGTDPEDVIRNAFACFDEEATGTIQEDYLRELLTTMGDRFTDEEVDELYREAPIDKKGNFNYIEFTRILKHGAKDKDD
T1 sequence (P60660 2-151 partner limits assumed): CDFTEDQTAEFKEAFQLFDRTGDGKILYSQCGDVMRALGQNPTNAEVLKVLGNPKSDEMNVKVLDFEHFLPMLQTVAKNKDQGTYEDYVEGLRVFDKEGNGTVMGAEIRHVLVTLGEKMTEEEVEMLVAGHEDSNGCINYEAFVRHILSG

Structure (SMILES) | effect on traction forces exerted by cells [1] | inhibition of ATP-induced retraction of stress fiber ends (contractility) ([2]; >100 μM SMIFH2) | inhibition of ATP-induced retraction of stress fiber ends ([2]; ∼50μM SMIFH2) [%] | velocity of centripetal movement of transverse arcs (myosin 2 filaments) [3] | ATP-induced centripetal movement of myosin 2 filaments [4] | IC50 [5] | IC50 [6] [µM] | inhibition of MLCK activity [7] | Velocity of actin filaments ([8]; 50 μM SMIFH2) | Velocity of actin filaments ([8]; 100 μM SMIFH2) | Velocity of actin filaments ([8]; 150 μM SMIFH2) | Velocity of actin filaments ([8]; 150 μM SMIFH2 followed by washout) | Velocity of actin filaments ([8]; 200 μM SMIFH2) | IC50 [9] | IC50 [10] | IC50 [11] | IC50 [12] [µM] | IC50 [13] [µM] | effect on assembly of pure actin [14] | inhibition of ATP-induced retraction of stress fiber ends (contractility) ([2]; 100 μM pAB)
O=C1NC(=S)N(c2cccc(Br)c2)C(=O)C1=Cc1ccco1 [SMIFH2] | inhibition of traction forces | complete inhibition | ~50 | decreased in dose-dependent manner | blocked centripetal movement | 50 µM and ~50 µM | ~40 | no effect; also recorded: did not inhibit | 4.1* μm/s | 4.1* μm/s | completely abolished; also recorded: No movement | could not be reversed; also recorded: No movement | No movement | 2 µM and ~2 µM | 30 µM and ~30 µM | 15 µM and ~15 µM | ~15 | 5 to 15 | did not affect | –
Cc1ccc2c(c1)C(=O)[C@]1(O)CCN(c3ccc(N)cc3)C1=N2 [pAB, para-aminoblebbistatin] | – | – | – | – | – | – | – | – | – | – | – | – | – | – | – | – | – | – | – | complete inhibition
